Reference: PMC4912633, “Direct evidence of the molecular basis for biological silicon transport” (Nature Communications, 2016)

B1: PtSIT1 (Phaeodactylum tricornutum) (protein)
chain: MVDAGNVIKCAYSVGLLVFSTIIIMGLIFNEETKLSSDVNSAVAFVAIWGGVLWLTMVEGGQGSLVGLAPVNRELYKDSHPIAYKCTAIAHKGDNLDRYLLGRQFMVVLTVFVVNMSGGPLKDAELWGFPYVLTNMFLGSGLAMILFTAMVGQLNSQVNASLCMLDYINNYFALFTLWVAMAIEFSGLLHASYLVQMLVAALSGKKIESNEEPRNGLQNLFFWSRCLGSLAILGYCFAVTLAALFAGKTTMWEGVPPSVAVIVFFVLMSVVGLLEGMQIAFFAVAKIPKAERGDSVFAKKTCDLLFKGDGNNLPGFMIGRQLCVVSCMFFIARVTSVEIAEGEENIFGVSDGFQKLFDTGLLGAIITTIVASISWQLVASAFPIAFLSNPFTYIFLRICLVLEAIGICSGAWVLAAIHKKVAGFQRDEVYIGTAEERAAKDMSDDSDQLHLGPGHLVKLPGFAEHAPTALKDLMMADPSVADYLKSIHEMESGKANGEGSETRRTGSSEADE

Assays:
PtSIT1 [1] = biological target: T1, PtSIT1 (Phaeodactylum tricornutum, UniProt B7T1F4, Q104A); assay: biochemical
T1 construct: gene SIT1
T1 sequence (B7T1F4 1-512 Q104A): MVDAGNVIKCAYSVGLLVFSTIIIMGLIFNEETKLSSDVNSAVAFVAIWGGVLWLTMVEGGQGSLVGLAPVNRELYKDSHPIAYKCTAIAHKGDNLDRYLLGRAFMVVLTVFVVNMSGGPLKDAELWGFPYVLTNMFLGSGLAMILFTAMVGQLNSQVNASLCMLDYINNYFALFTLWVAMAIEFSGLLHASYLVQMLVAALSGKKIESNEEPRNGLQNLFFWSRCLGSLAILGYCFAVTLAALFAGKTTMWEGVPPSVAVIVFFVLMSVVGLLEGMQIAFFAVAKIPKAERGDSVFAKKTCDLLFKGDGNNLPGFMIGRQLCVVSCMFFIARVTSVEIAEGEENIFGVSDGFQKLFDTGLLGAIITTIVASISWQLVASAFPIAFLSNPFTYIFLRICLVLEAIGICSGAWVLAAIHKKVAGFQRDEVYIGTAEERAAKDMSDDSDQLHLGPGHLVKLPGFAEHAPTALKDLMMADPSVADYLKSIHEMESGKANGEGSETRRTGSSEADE

PtSIT1 [2] = biological target: T2, PtSIT1 (Phaeodactylum tricornutum, UniProt B7T1F4); assay: biochemical
T2 construct: gene SIT1

PtSIT1 [3] = biological target: T3, PtSIT1 (Phaeodactylum tricornutum, UniProt B7T1F4, Q321A); assay: biochemical
T3 construct: gene SIT1
T3 sequence (B7T1F4 1-512 Q321A): as the sequence (B7T1F4 1-512 Q104A) above, with A104Q, Q321A counted along it

purified protein = substrate: O[Si](O)(O)O; assay: purified protein; conditions: inward Na+ gradient (150 mM NaCl outside), valinomycin, 50 mM Tris, 150 mM KCl inside, pH 7.4, error s.e.m. of fit

| Molecule | Kd (PtSIT1 [1]) [µM] | Kd (PtSIT1 [2]) [µM] | Kd (PtSIT1 [3]) [µM] | Km (purified protein) [µM] |
| --- | --- | --- | --- | --- |
| O[Si](O)(O)O [silicic acid] | 25.5 ± 11 | 2.9 ± 2.3 | 13.3 ± 8 | – |
| B1 | – | – | – | 19.1 ± 4.5 |
